In article PMC5218480 (PLoS ONE, 2017):

System: MV-4-11 cells
Experiment: Gene expression microarray analysis (Affymetrix PrimeView) and GSEA
Format: cell-based, human
Parameters: RFU PODN (11730768_x_at) / Fold change /veh PODN (11730768_x_at) / RFU LINC00158 (11744669_a_at) / Fold change /veh LINC00158 (11744669_a_at) / RFU DUSP10 (11751237_a_at) / Fold change /veh DUSP10 (11751237_a_at) / RFU ID3 (11757404_x_at) / Fold change /veh ID3 (11757404_x_at) / RFU PLEKHG5 (11737974_s_at) / Fold change /veh PLEKHG5 (11737974_s_at) / RFU LRRC4B (11730491_at) / Fold change /veh LRRC4B (11730491_at) / RFU GIMAP4 (11747438_a_at) / Fold change /veh GIMAP4 (11747438_a_at) / RFU KRT8 (11758183_x_at) / Fold change /veh KRT8 (11758183_x_at) / RFU CNN1 (11734310_a_at) / Fold change /veh CNN1 (11734310_a_at) / RFU VPS37D (11726825_at) / Fold change /veh VPS37D (11726825_at) / RFU C10orf10 (11716522_x_at) / Fold change /veh C10orf10 (11716522_x_at) / RFU KIR2DL2 /// KIR2DL4 /// KIR2DL5A /// KIR2DL5B /// KIR2DS1 /// KIR2DS2 /// KIR2DS3 /// KIR2DS4 /// KIR3DL3 /// KIR3DL3 /// KIR3DS1 (11738374_at) / Fold change /veh KIR2DL2 /// KIR2DL4 /// KIR2DL5A /// KIR2DL5B /// KIR2DS1 /// KIR2DS2 /// KIR2DS3 /// KIR2DS4 /// KIR3DL3 /// KIR3DL3 /// KIR3DS1 (11738374_at) / RFU C1QL1 (11718748_at) / Fold change /veh C1QL1 (11718748_at) / RFU TMPRSS4 (11747572_a_at) / Fold change /veh TMPRSS4 (11747572_a_at) / RFU HAMP (11756126_x_at) / Fold change /veh HAMP (11756126_x_at) / RFU RNFT2 (11725882_a_at) / Fold change /veh RNFT2 (11725882_a_at) / RFU NR4A2 (11747474_a_at) / Fold change /veh NR4A2 (11747474_a_at) / RFU ABCC12 (11746883_a_at) / Fold change /veh ABCC12 (11746883_a_at) / RFU TMEM136 (11760407_x_at) / Fold change /veh TMEM136 (11760407_x_at) / RFU CLDN22 /// WWC2 (11732394_at) / Fold change /veh CLDN22 /// WWC2 (11732394_at) / RFU HLA-DPB1 (11760878_x_at) / Fold change /veh HLA-DPB1 (11760878_x_at) / RFU SPINT1 (11716480_a_at) / Fold change /veh SPINT1 (11716480_a_at) / RFU GAP43 (11754022_s_at) / Fold change /veh GAP43 (11754022_s_at) / RFU A4GNT (11735810_at) / Fold change /veh A4GNT (11735810_at) / RFU PRB3 (11715151_x_at) / Fold change /veh PRB3 (11715151_x_at) / RFU TUBB4B (11761932_at) / Fold change /veh TUBB4B (11761932_at) / RFU CAPN14 (11732068_a_at) / Fold change /veh CAPN14 (11732068_a_at) / RFU TMCC2 (11721928_a_at) / Fold change /veh TMCC2 (11721928_a_at) / RFU IRGQ (11745062_a_at) / Fold change /veh IRGQ (11745062_a_at) / RFU FAM174B (11720279_a_at) / Fold change /veh FAM174B (11720279_a_at) / RFU TMPRSS4 (11748680_a_at) / Fold change /veh TMPRSS4 (11748680_a_at) / RFU FAM212B (11763350_a_at) / Fold change /veh FAM212B (11763350_a_at) / RFU PLEKHG5 (11743358_a_at) / Fold change /veh PLEKHG5 (11743358_a_at) / RFU ZSCAN30 (11745921_a_at) / Fold change /veh ZSCAN30 (11745921_a_at) / RFU CMKLR1 (11741424_a_at) / Fold change /veh CMKLR1 (11741424_a_at) / RFU LOC101060620 /// MAPK8IP1 (11723275_at) / Fold change /veh LOC101060620 /// MAPK8IP1 (11723275_at) / RFU SPTSSB (11747773_x_at) / Fold change /veh SPTSSB (11747773_x_at) / RFU PRSS12 (11739890_at) / Fold change /veh PRSS12 (11739890_at) / RFU BIN1 (11741810_x_at) / Fold change /veh BIN1 (11741810_x_at) / RFU WNT11 (11732464_a_at) / Fold change /veh WNT11 (11732464_a_at) / RFU C10orf10 (11716521_a_at) / Fold change /veh C10orf10 (11716521_a_at) / RFU C5orf56 (11738089_at) / Fold change /veh C5orf56 (11738089_at) / RFU CYB561 (11721691_x_at) / Fold change /veh CYB561 (11721691_x_at) / RFU ANKRD19P (11752326_a_at) / Fold change /veh ANKRD19P (11752326_a_at) / RFU OR2T12 /// OR2T33 /// OR2T8 (11738714_s_at) / Fold change /veh OR2T12 /// OR2T33 /// OR2T8 (11738714_s_at) / RFU VCAN (11748164_a_at) / Fold change /veh VCAN (11748164_a_at) / RFU JSRP1 (11732532_at) / Fold change /veh JSRP1 (11732532_at) / RFU KRTAP10-11 (11738290_x_at) / Fold change /veh KRTAP10-11 (11738290_x_at) / RFU MYO3A (11730013_a_at) / Fold change /veh MYO3A (11730013_a_at) / RFU EBF3 (11725865_a_at) / Fold change /veh EBF3 (11725865_a_at) / RFU CAMK2N1 (11719241_x_at) / Fold change /veh CAMK2N1 (11719241_x_at) / RFU C5orf56 (11738088_a_at) / Fold change /veh C5orf56 (11738088_a_at) / RFU OLFML3 (11715873_a_at) / Fold change /veh OLFML3 (11715873_a_at) / RFU LOC100653217 /// NTM (11731650_a_at) / Fold change /veh LOC100653217 /// NTM (11731650_a_at) / RFU MAPK11 (11762145_a_at) / Fold change /veh MAPK11 (11762145_a_at) / RFU FIZ1 (11724087_x_at) / Fold change /veh FIZ1 (11724087_x_at) / RFU OASL (11726364_x_at) / Fold change /veh OASL (11726364_x_at) / RFU SOX15 (11748057_x_at) / Fold change /veh SOX15 (11748057_x_at) / RFU CD79A (11719716_a_at) / Fold change /veh CD79A (11719716_a_at) / RFU HIST1H1D (11736915_at) / Fold change /veh HIST1H1D (11736915_at) / RFU CASKIN2 (11723855_a_at) / Fold change /veh CASKIN2 (11723855_a_at) / RFU LOC730098 (11760151_x_at) / Fold change /veh LOC730098 (11760151_x_at) / RFU OR4N2 (11742367_at) / Fold change /veh OR4N2 (11742367_at) / RFU PRRT2 (11749266_a_at) / Fold change /veh PRRT2 (11749266_a_at) / RFU SNX32 (11753110_a_at) / Fold change /veh SNX32 (11753110_a_at) / RFU CDHR5 (11726645_a_at) / Fold change /veh CDHR5 (11726645_a_at) / RFU RCAN1 (11760418_a_at) / Fold change /veh RCAN1 (11760418_a_at) / RFU FAM167A (11723789_a_at) / Fold change /veh FAM167A (11723789_a_at) / RFU FAM26E (11764081_at) / Fold change /veh FAM26E (11764081_at) / RFU ISYNA1 (11749810_s_at) / Fold change /veh ISYNA1 (11749810_s_at) / RFU ACY1 (11761880_at) / Fold change /veh ACY1 (11761880_at) / RFU 11764098_at / Fold change /veh 11764098_at / RFU SAMD14 (11745864_x_at) / Fold change /veh SAMD14 (11745864_x_at) / RFU NPB (11741838_a_at) / Fold change /veh NPB (11741838_a_at) / RFU TMPRSS6 (11731388_a_at) / Fold change /veh TMPRSS6 (11731388_a_at) / RFU KRTAP10-2 (11738614_at) / Fold change /veh KRTAP10-2 (11738614_at) / RFU ARHGAP8 /// PRR5-ARHGAP8 (11727945_x_at) / Fold change /veh ARHGAP8 /// PRR5-ARHGAP8 (11727945_x_at) / RFU KRTAP5-7 /// NADSYN1 (11734609_at) / Fold change /veh KRTAP5-7 /// NADSYN1 (11734609_at) / RFU RASL12 (11751679_a_at) / Fold change /veh RASL12 (11751679_a_at) / RFU CDKN2B (11736163_a_at) / Fold change /veh CDKN2B (11736163_a_at) / RFU PRF1 (11729649_at) / Fold change /veh PRF1 (11729649_at) / RFU, ZNF638 /// ZNF638-IT1 / Fold change vs veh, ZNF638 /// ZNF638-IT1 / RFU, PANK3 / Fold change vs veh, PANK3 / RFU, SH3YL1 / Fold change vs veh, SH3YL1 / RFU, ZEB2 / Fold change vs veh, ZEB2 / RFU, NRIP1 / Fold change vs veh, NRIP1 / RFU, PTTG1IP / Fold change vs veh, PTTG1IP / RFU, CAPN2 / Fold change vs veh, CAPN2 / RFU, MED14 / Fold change vs veh, MED14 / RFU, SNORA58 / Fold change vs veh, SNORA58 / RFU, C1orf63 / Fold change vs veh, C1orf63 / RFU, LRRFIP1 / Fold change vs veh, LRRFIP1 / RFU, NDUFAF7 / Fold change vs veh, NDUFAF7 / RFU, SLC12A2 / Fold change vs veh, SLC12A2 / RFU, IBTK / Fold change vs veh, IBTK / RFU, ESF1 / Fold change vs veh, ESF1 / Fold change vs veh, TMEM50B / RFU, TAOK1 / Fold change vs veh, TAOK1 / RFU, ACBD3 / Fold change vs veh, ACBD3 / RFU, TMA16 / Fold change vs veh, TMA16 / RFU, RWDD3 / Fold change vs veh, RWDD3 / RFU, BCAT1 / Fold change vs veh, BCAT1 / RFU, EDEM3 / Fold change vs veh, EDEM3 / RFU, TMEM33 / Fold change vs veh, TMEM33 / RFU, WDR75 / Fold change vs veh, WDR75 / RFU, AHCTF1 / Fold change vs veh, AHCTF1 / RFU, TFRC / Fold change vs veh, TFRC / RFU, ZDHHC17 / Fold change vs veh, ZDHHC17 / RFU, NOM1 / Fold change vs veh, NOM1 / RFU, ARL8B / Fold change vs veh, ARL8B / RFU, ZBTB11 / Fold change vs veh, ZBTB11 / RFU, TAMM41 / Fold change vs veh, TAMM41 / RFU, KIAA1704 /// LOC100996395 / Fold change vs veh, KIAA1704 /// LOC100996395 / RFU, ING1 / Fold change vs veh, ING1 / RFU, TRMT61B / Fold change vs veh, TRMT61B / RFU, FUBP3 / Fold change vs veh, FUBP3 / RFU, TP53 / Fold change vs veh, TP53 / RFU, TNKS2 / Fold change vs veh, TNKS2 / RFU, ZFP14 / Fold change vs veh, ZFP14 / RFU, ACTR2 / Fold change vs veh, ACTR2 / RFU, PPP3R1 / Fold change vs veh, PPP3R1 / RFU, PIK3R1 / Fold change vs veh, PIK3R1 / RFU, HNRNPA1 / Fold change vs veh, HNRNPA1 / RFU, RNF170 / Fold change vs veh, RNF170 / RFU, ZNF28 / Fold change vs veh, ZNF28 / RFU, RNGTT / Fold change vs veh, RNGTT / RFU, OGT / Fold change vs veh, OGT / RFU, BRD1 / Fold change vs veh, BRD1 / RFU, MARS / Fold change vs veh, MARS / RFU, ZNF655 / Fold change vs veh, ZNF655 / RFU, FAHD1 / Fold change vs veh, FAHD1 / RFU, BDP1 / Fold change vs veh, BDP1 / RFU, LRRCC1 / Fold change vs veh, LRRCC1 / RFU, ARID1A / Fold change vs veh, ARID1A / RFU, ZNF146 / Fold change vs veh, ZNF146 / RFU, ZNF330 / Fold change vs veh, ZNF330 / RFU, GPN3 / Fold change vs veh, GPN3 / RFU, C9orf123 / Fold change vs veh, C9orf123 / RFU, N4BP2L2 / Fold change vs veh, N4BP2L2 / RFU, ARFIP1 / Fold change vs veh, ARFIP1 / RFU, FAM179B / Fold change vs veh, FAM179B / RFU, BCL10 / Fold change vs veh, BCL10 / RFU, UHRF1BP1L / Fold change vs veh, UHRF1BP1L / RFU, BET1 / Fold change vs veh, BET1 / RFU, CNOT2 / Fold change vs veh, CNOT2 / RFU, ZNF268 / Fold change vs veh, ZNF268 / Fold change vs veh, ZNF507 / RFU, DGCR2 / Fold change vs veh, DGCR2 / RFU, WDSUB1 / Fold change vs veh, WDSUB1 / Fold change vs veh, HSP90B1 /// MIR3652 / RFU, ADSS / Fold change vs veh, ADSS / RFU, GK / Fold change vs veh, GK / RFU, ZNF148 / Fold change vs veh, ZNF148 / RFU, TAF9 / Fold change vs veh, TAF9 / RFU, SLC1A5 / Fold change vs veh, SLC1A5 / RFU, SLMO2 / Fold change vs veh, SLMO2 / RFU, ABCC4 / Fold change vs veh, ABCC4 / RFU, LOC101060439 /// RAP1B / Fold change vs veh, LOC101060439 /// RAP1B / RFU, RFX7 / Fold change vs veh, RFX7 / RFU, GTPBP10 / Fold change vs veh, GTPBP10 / RFU, CNEP1R1 / Fold change vs veh, CNEP1R1 / RFU, BIVM-ERCC5 /// ERCC5 / Fold change vs veh, BIVM-ERCC5 /// ERCC5 / RFU, ILF3 / Fold change vs veh, ILF3 / RFU 11762660_at / Fold change /veh 11762660_at / RFU VCAN (11757783_s_at) / Fold change /veh VCAN (11757783_s_at) / RFU DDX43 (11728927_at) / Fold change /veh DDX43 (11728927_at) / RFU KRT8 (11758188_x_at) / Fold change /veh KRT8 (11758188_x_at) / RFU NKD1 (11759106_at) / Fold change /veh NKD1 (11759106_at) / RFU SRD5A1 (11742802_a_at) / Fold change /veh SRD5A1 (11742802_a_at) / RFU TPSAB1 /// TPSB2 (11721975_s_at) / Fold change /veh TPSAB1 /// TPSB2 (11721975_s_at) / RFU GSTM3 (11746129_a_at) / Fold change /veh GSTM3 (11746129_a_at) / RFU IL23R (11737362_x_at) / Fold change /veh IL23R (11737362_x_at) / RFU TMEM51 (11727254_a_at) / Fold change /veh TMEM51 (11727254_a_at) / RFU PIWIL2 (11732686_x_at) / Fold change /veh PIWIL2 (11732686_x_at) / RFU ORM1 (11744905_x_at) / Fold change /veh ORM1 (11744905_x_at) / RFU CCDC152 (11743942_at) / Fold change /veh CCDC152 (11743942_at) / RFU ECM1 (11717891_a_at) / Fold change /veh ECM1 (11717891_a_at) / RFU IL23R (11748794_a_at) / Fold change /veh IL23R (11748794_a_at) / RFU TNFAIP8L3 (11732012_x_at) / Fold change /veh TNFAIP8L3 (11732012_x_at) / RFU MBOAT4 (11741988_at) / Fold change /veh MBOAT4 (11741988_at) / RFU 11764193_at / Fold change /veh 11764193_at / RFU TMEM53 (11763286_at) / Fold change /veh TMEM53 (11763286_at) / RFU MAGEB2 (11727129_at) / Fold change /veh MAGEB2 (11727129_at) / RFU TMEM200A (11744735_a_at) / Fold change /veh TMEM200A (11744735_a_at) / RFU CCDC152 (11751479_a_at) / Fold change /veh CCDC152 (11751479_a_at) / RFU FAM211A (11726209_a_at) / Fold change /veh FAM211A (11726209_a_at) / RFU RGS16 (11746705_a_at) / Fold change /veh RGS16 (11746705_a_at) / RFU VCAN (11755009_s_at) / Fold change /veh VCAN (11755009_s_at) / RFU RHOB (11743442_s_at) / Fold change /veh RHOB (11743442_s_at) / RFU RGS16 (11720943_a_at) / Fold change /veh RGS16 (11720943_a_at) / RFU RGS16 (11720944_at) / Fold change /veh RGS16 (11720944_at) / RFU, VPS4B / Fold change vs veh, VPS4B / RFU, CREB1 / Fold change vs veh, CREB1 / RFU, DNAJC13 / Fold change vs veh, DNAJC13 / RFU, GNAQ / Fold change vs veh, GNAQ / RFU, CDK5R1 / Fold change vs veh, CDK5R1 / RFU, ZRANB3 / Fold change vs veh, ZRANB3 / RFU, CUL4A / Fold change vs veh, CUL4A / RFU, CCNY / Fold change vs veh, CCNY / RFU, UFL1 / Fold change vs veh, UFL1 / RFU, COG3 / Fold change vs veh, COG3 / RFU, DIAPH2 / Fold change vs veh, DIAPH2 / RFU, SKA2 / Fold change vs veh, SKA2 / RFU, AFF3 / Fold change vs veh, AFF3 / RFU, LMF1 / Fold change vs veh, LMF1 / RFU, IPO11 / Fold change vs veh, IPO11 / RFU, DFFB / Fold change vs veh, DFFB / RFU, FOXP1 / Fold change vs veh, FOXP1 / RFU, CARD8 / Fold change vs veh, CARD8 / RFU, STRN3 / Fold change vs veh, STRN3 / RFU, ADK / Fold change vs veh, ADK / RFU, RASSF2 / Fold change vs veh, RASSF2 / RFU, WIPF1 / Fold change vs veh, WIPF1 / RFU, LARP1B / Fold change vs veh, LARP1B / RFU, RASA1 / Fold change vs veh, RASA1 / RFU, RB1 / Fold change vs veh, RB1 / RFU, PPFIA1 / Fold change vs veh, PPFIA1 / RFU, MAT2A / Fold change vs veh, MAT2A / RFU, CCT5 / Fold change vs veh, CCT5 / RFU, WDR92 / Fold change vs veh, WDR92 / RFU, CUX1 / Fold change vs veh, CUX1 / RFU, TTC7A / Fold change vs veh, TTC7A / RFU, TMEM135 / Fold change vs veh, TMEM135 / RFU, DEPTOR / Fold change vs veh, DEPTOR / RFU, CPM / Fold change vs veh, CPM / RFU, DNAJB6 / Fold change vs veh, DNAJB6 / RFU, CACNA2D3 / Fold change vs veh, CACNA2D3 / RFU, DTX4 / Fold change vs veh, DTX4 / RFU, TFCP2 / Fold change vs veh, TFCP2 / RFU, GMCL1 /// GMCL1P1 / Fold change vs veh, GMCL1 /// GMCL1P1 / RFU, AEBP2 / Fold change vs veh, AEBP2 / RFU, SNHG1 /// SNORD22 /// SNORD25 /// SNORD26 /// SNORD27 /// SNORD28 /// SNORD29 /// SNORD31 / Fold change vs veh, SNHG1 /// SNORD22 /// SNORD25 /// SNORD26 /// SNORD27 /// SNORD28 /// SNORD29 /// SNORD31 / Fold change (Aza/veh), C12orf56 (ProbeSet 11735607_a_at) / Fold change (ACY-1035/veh), C12orf56 (ProbeSet 11735607_a_at) / Fold change (Aza/veh), FGFR1OP (ProbeSet 11751329_s_at) / Fold change (ACY-1035/veh), FGFR1OP (ProbeSet 11751329_s_at) / Fold change (Aza/veh), VPS36 (ProbeSet 11739960_a_at) / Fold change (ACY-1035/veh), VPS36 (ProbeSet 11739960_a_at) / RFU SYPL1 (11715823_x_at) / Fold change /veh SYPL1 (11715823_x_at) / RFU IGFBP7 (11715501_s_at) / Fold change /veh IGFBP7 (11715501_s_at) / RFU REEP3 (11722064_at) / Fold change /veh REEP3 (11722064_at) / RFU IGLL1 (11728026_x_at) / Fold change /veh IGLL1 (11728026_x_at): dose or concentration left out as unconfirmed
Details: ProbeSet 11749551_a_at; LIST B

Nc1ncn([C@@H]2O[C@H](CO)[C@@H](O)[C@H]2O)c(=O)n1 [azacitidine]
Fold change vs veh, RNGTT: 1.02
